Test results reported in patent US20220104492A1, “PYRIDAZINIUM COMPOUNDS FOR USE IN A METHOD OF CONTROLLING UNWANTED PLANT GROWTH” (SYNGENTA CROP PROTECTION AG, priority 2019, published 2022).
Read-outs that look alike come from different tables or passages of the source.

Key:
Assay in all cases: Post-emergence efficacy (glasshouse, spray application)
Type in all cases: in vivo
[1] = system: Chenopodium album (CHEAL); conditions: 312 h, read-out: Control of weed species after post-emergence application, CHEAL
Description: (§1) Seeds of a variety of test species were sown in standard soil in pots. After cultivation for 14 days (post-emergence) under controlled conditions in a glasshouse (at 24/16° C., day/night; 14 hours light; 65 humidity), the plants were sprayed with an aqueous spray solution derived from the dissolution of the technical active ingredient formula (I) in a small amount of acetone and a special solvent and emulsifier mixture referred to as IF50 (11.12% Emulsogen EL360 TM+44.44% N-methylpyrrolidone+44.44% Dowanol DPM glycol ether), to create a 50 g/l solution which was then diluted to required concentration using a solution of 0.25% or 1% Empicol ESC70 (Sodium lauryl ether sulphate)+1% ammonium sulphate in water as diluent.
(§2) The test plants were then grown in a glasshouse under controlled conditions (at 24/16° C., day/night; 14 hours light; 65% humidity) and watered twice daily. After 13 days the test was evaluated (100=total damage to plant; 0=no damage to plant).
(§3) Ipomoea hederacea (IPOHE), Euphorbia heterophylla (EPHHL), Chenopodium album (CHEAL), Amaranthus palmeri (AMAPA), Lolium perenne (LOLPE), Digitaria sanguinalis (DIGSA), Eleusine indica (ELEIN), Echinochloa crus-galli (ECHCG), Setaria faberi (SETFA)

[2] = system: Echinochloa crus-galli (ECHCG); conditions: 312 h, read-out: Control of weed species after post-emergence application, ECHCG
Description: as §1, §2, §3

[3] = system: Euphorbia heterophylla (EPHHL); conditions: 312 h, read-out: Control of weed species after post-emergence application, EPHHL
Description: as §1, §2, §3

[4] = system: Digitaria sanguinalis (DIGSA); conditions: 312 h, read-out: Control of weed species after post-emergence application, DIGSA
Description: as §1, §2, §3

Eleusine indica (ELEIN) = conditions: 312 h, read-out: Control of weed species after post-emergence application, ELEIN
Description: as §1, §2, §3

Setaria faberi (SETFA) = conditions: 312 h, read-out: Control of weed species after post-emergence application, SETFA
Description: as §1, §2, §3

[5] = system: Ipomoea hederacea (IPOHE); conditions: 312 h, read-out: Control of weed species after post-emergence application, IPOHE
Description: as §1, §2, §3

Lolium perenne (LOLPE) = conditions: 312 h, read-out: Control of weed species after post-emergence application, LOLPE
Description: as §1, §2, §3

[6] = system: Amaranthus palmeri (AMAPA); conditions: 312 h, read-out: Control of weed species after post-emergence application, AMAPA
Description: as §1, §2, §3

[7] = Application rate 500 g/Ha, evaluated after 13 days, 100=total damage to plant, 0=no damage to plant

| Structure (SMILES) | pest or weed control at 500 g/ha [1] [%] | pest or weed control at 500 g/ha [2] [%] | pest or weed control at 500 g/ha [3] [%] | pest or weed control at 500 g/ha [4] [%] | pest or weed control at 500 g/ha (Eleusine indica (ELEIN)) [%] | pest or weed control at 500 g/ha (Setaria faberi (SETFA)) [%] | pest or weed control at 500 g/ha [5] [%] | pest or weed control at 500 g/ha (Lolium perenne (LOLPE)) [%] | pest or weed control at 500 g/ha [6] [%] | pest or weed control at 500 g/ha [1, 7] [%] | pest or weed control at 500 g/ha [2, 7] [%] | pest or weed control at 500 g/ha [3, 7] [%] | pest or weed control at 500 g/ha [4, 7] [%] | pest or weed control at 500 g/ha (Eleusine indica (ELEIN); [7]) [%] | pest or weed control at 500 g/ha (Setaria faberi (SETFA); [7]) [%] | pest or weed control at 500 g/ha [5, 7] [%] | pest or weed control at 500 g/ha (Lolium perenne (LOLPE); [7]) [%] | pest or weed control at 500 g/ha [6, 7] [%] |
| --- | --- | --- | --- | --- | --- | --- | --- | --- | --- | --- | --- | --- | --- | --- | --- | --- | --- | --- |
| O=C(O)CNC(=O)C[n+]1ccc(-c2ncccn2)cn1 [Compound A1, 2-[[2-(4-pyrimidin-2-ylpyridazin-1-ium-1-yl)acetyl]amino]acetic acid 2,2,2-trifluoroacetate] | 100 | 70 | 90 | 90 | 90 | 60 | 100 | 70 | 100 |  |  |  |  |  |  |  |  |  |
| CCC(NC(=O)C[n+]1ccc(-c2ncccn2)cn1)C(=O)O (stereo not shown) [Compound A2] |  |  |  |  |  |  |  |  |  | 90 | 90 | 100 | 80 | 70 | 40 | 100 | 40 | 100 |
| CCCC(NC(=O)C[n+]1ccc(-c2ncccn2)cn1)C(=O)O (stereo not shown) [Compound A3] |  |  |  |  |  |  |  |  |  | 100 | 90 | 100 | 90 | 100 | 70 | 70 | 50 | 100 |
| O=C(O)COCC[n+]1ccc(-c2ncccn2)cn1 [Compound A4] |  |  |  |  |  |  |  |  |  | 100 | 90 | 100 | 90 | 100 | 100 | 90 | 80 | 100 |
| CCC(C)C(NC(=O)C[n+]1ccc(-c2ncccn2)cn1)C(=O)O (stereo not shown) [Compound A5] |  |  |  |  |  |  |  |  |  | 100 | 30 | 100 | 10 | 10 | 10 | 60 | 0 | 100 |
| CC(C)CC(NC(=O)C[n+]1ccc(-c2ncccn2)cn1)C(=O)O (stereo not shown) [Compound A6] |  |  |  |  |  |  |  |  |  | 100 | 70 | 100 | 50 | 90 | 50 | 90 | 40 | 100 |
| NC(=O)CC(NC(=O)C[n+]1ccc(-c2ncccn2)cn1)C(=O)O (stereo not shown) [Compound A7] |  |  |  |  |  |  |  |  |  | 60 | 30 | 30 | 40 | 30 | 40 | 0 | 0 | 10 |
| CN(CC(=O)O)C(=O)C[n+]1ccc(-c2ncccn2)cn1 [Compound A8, 2-[methyl-[2-(4-pyrimidin-2-ylpyridazin-1-ium-1-yl)acetyl]amino]acetic acid 2,2,2-trifluoroacetate] |  |  |  |  |  |  |  |  |  | 100 | 80 | 100 | 70 | 90 | 70 | 60 | 40 | 100 |
| O=C(O)CCC(=O)C[n+]1ccc(-c2ncccn2)cn1 [Compound A9, 4-oxo-5-(4-pyrimidin-2-ylpyridazin-1-ium-1-yl)pentanoic acid chloride] |  |  |  |  |  |  |  |  |  | 70 | 70 | 70 | 50 | 70 | 30 | 40 | 0 | 70 |
| O=C(O)CNC(=O)CNC(=O)C[n+]1ccc(-c2ncccn2)cn1 [Compound A10] |  |  |  |  |  |  |  |  |  | 60 | 70 | 90 | 80 | 90 | 80 | 40 | 40 | 90 |
| O=C(C[n+]1ccc(-c2ncccn2)cn1)NC(Cc1ccccc1)C(=O)O (stereo not shown) [Compound A11] |  |  |  |  |  |  |  |  |  | 50 | 70 | 90 | 90 | 90 | 50 | 20 | 20 | 100 |
| CC(NC(=O)C[n+]1ccc(-c2ncccn2)cn1)C(=O)O (stereo not shown) [Compound A12] |  |  |  |  |  |  |  |  |  | 100 | 70 | 100 | 90 | 100 | 70 | 70 | 50 | 100 |
| O=C(C[n+]1ccc(-c2ncccn2)cn1)NC(C(=O)O)c1ccccc1 (stereo not shown) [Compound A13] |  |  |  |  |  |  |  |  |  | 50 | 80 | 50 | 100 | 90 | 70 | 40 | 30 | 100 |
| O=C(O)CNC(=O)CC[n+]1ccc(-c2ncccn2)cn1 [Compound A14] |  |  |  |  |  |  |  |  |  | 90 | 100 | 100 | 100 | 100 | 100 | 100 | 100 | 100 |
| OCCOCC[n+]1ccc(-c2ncccn2)cn1 [Compound A17, 2-[2-(4-pyrimidin-2-ylpyridazin-1-ium-1-yl)ethoxy]ethanol 2,2,2-trifluoroacetate] |  |  |  |  |  |  |  |  |  | 50 | 30 | 30 |  | 20 | 20 | 0 | 10 | 30 |
| O=C(O)CNS(=O)(=O)CC[n+]1ccc(-c2ncccn2)cn1 [Compound A29, 2-[2-(4-pyrimidin-2-ylpyridazin-1-ium-1-yl)ethylsulfonylamino]-acetic acid 2,2,2-trifluoroacetate] |  |  |  |  |  |  |  |  |  | 70 | 50 | 90 |  | 70 | 60 | 40 | 50 | 100 |
